The results in this text go back to patent publication US20130287870A1, “NOVEL USES FOR TRADITIONAL CHINESE MEDICINE” (priority 2012, published 2013).

Structures are written as SMILES.

Test [1] deals with cortical neurons. Nature of the test: Membrane hyperpolarization associated with neuroprotection. The format is cell-based, mouse.
Test [2] deals with cortical neurons. The test can be described thus: Oxygen glucose deprivation (OGD) model, neuronal death assessed by Hoechst staining. The format is cell-based, mouse. The following applies: glibenclamide 10 μM applied 30 min before MLC901 1 μg/mL. On the procedure:
Time-pregnant (E14) C57B16/J mice were anesthetized with isopentane followed by cervical dislocation as previously described (Heurteaux et al., 2010). Fetuses were removed and placed in cold HBSS^+ solution. Cerebral cortices were dissected in cold HBSS^+ solution and the meninges were removed. Cortical samples were cut in small pieces and were gently triturated with a fire-polished glass Pasteur pipette in 8 ml HBSS^+ solution. The mix was filtered (40 μm filter) and centrifuged at 800 rpm for 8 min. The supernatant was removed and the pellet was dissolved in 2 ml culture medium. Cells were plated on poly-D-lysine (Sigma-Aldrich Chimie, St Quentin Fallavier, France)-coated 12 well (24 mm diameter) plates with glass coverslips (12 mm diameter) (CML, Nemours, France) at a density of 1×10^6 cells/well. Cultures were maintained at 37° C. in a humidified 95% air/5% CO2 atmosphere incubator in Neurobasal supplemented with B27, Glutamax, 100 units/ml penicillin, and 100 µg/ml streptomycin and used for experiments up to 12 days. Glial growth was suppressed by addition of 5-Fluoro-2-deoxyuridine (2 μM) and Uridine (2 μM) during the second day of culture.
OGD experiments were performed on primary mouse cortical neurons seeded at a density of 1,000,000 cells/35-mm dish after 4 days of culture (Goldberg and Choi, 1993). […]

Test [3] has as its target KATP channel (Kir 6.2 and SUR 1) (Homo sapiens, UniProt Q09428+Q14654). The test can be described thus: Two-electrode voltage clamp of KATP channels expressed in Xenopus oocytes, preactivated by sodium azide. Format: cell-based. The conditions noted are these: sodium azide 3 mM; test substance 10 μM. (In general: Two-electrode voltage clamp holds a large cell at a set potential and records current.)
Experimental: Defolliculated Xenopus oocytes were injected with 100 mL of cRNA at 0.02-0.4 μg/μL for Kir 6.2 and SUR 1 expression, and recorded 2-4 days later.
For electrophysiology, single oocytes were placed in a 0.3-mL perfusion chamber and impaled with two standard microelectrodes (1-2.5 M.Q. resistance) filled with 3 M KCl and voltage clamped with a Dagan CA-1 amplifier, in symmetrical potassium solution containing (in mM) (90 KCl, 1.8 CaCl2, 1 mM MgCl2, 5 Hepes, pH 7.4 with KOH). Stimulation of the preparation, data acquisition, and analysis were performed using pClamp software (Axon Instruments). Currents were recorded in this potassium symmetrical control condition. KATP channel activity was evaluated by intracellular ATP depletion by 3 mM of sodium azide.
For Kir 6.2 and SUR 1 expression defolliculated Xenopus oocytes were injected with 100 mL of cRNA at 0.02-0.4 μg/μL, and currents were recorded after 2-4 days. […] Currents were recorded in the potassium symmetrical control condition. KATP channel activity was evaluated by intracellular ATP depletion by 3 mM of sodium azide.
current was first recorded in control condition (symmetrical potassium solution). […]

In test [4] the target is T1, KATP channels in INS-R9 insulinoma cells (Rattus norvegicus, UniProt P70673+Q09429).
T1 construct: Insulinoma cells naturally have KATP channels; endogenous in cells; host or cells: rat INS-R9 insulinoma cells
T1 sequence (P70673 whole entry): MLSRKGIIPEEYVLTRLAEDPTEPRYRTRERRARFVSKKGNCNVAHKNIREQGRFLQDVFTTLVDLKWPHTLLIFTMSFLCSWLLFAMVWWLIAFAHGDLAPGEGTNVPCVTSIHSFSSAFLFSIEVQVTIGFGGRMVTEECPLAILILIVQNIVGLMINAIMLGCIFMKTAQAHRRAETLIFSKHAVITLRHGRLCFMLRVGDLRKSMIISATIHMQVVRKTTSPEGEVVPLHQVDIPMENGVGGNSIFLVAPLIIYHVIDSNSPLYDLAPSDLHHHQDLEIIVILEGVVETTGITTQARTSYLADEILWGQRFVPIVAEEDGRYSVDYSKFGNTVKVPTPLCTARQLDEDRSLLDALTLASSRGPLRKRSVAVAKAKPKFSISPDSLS
T1 sequence (Q09429 whole entry): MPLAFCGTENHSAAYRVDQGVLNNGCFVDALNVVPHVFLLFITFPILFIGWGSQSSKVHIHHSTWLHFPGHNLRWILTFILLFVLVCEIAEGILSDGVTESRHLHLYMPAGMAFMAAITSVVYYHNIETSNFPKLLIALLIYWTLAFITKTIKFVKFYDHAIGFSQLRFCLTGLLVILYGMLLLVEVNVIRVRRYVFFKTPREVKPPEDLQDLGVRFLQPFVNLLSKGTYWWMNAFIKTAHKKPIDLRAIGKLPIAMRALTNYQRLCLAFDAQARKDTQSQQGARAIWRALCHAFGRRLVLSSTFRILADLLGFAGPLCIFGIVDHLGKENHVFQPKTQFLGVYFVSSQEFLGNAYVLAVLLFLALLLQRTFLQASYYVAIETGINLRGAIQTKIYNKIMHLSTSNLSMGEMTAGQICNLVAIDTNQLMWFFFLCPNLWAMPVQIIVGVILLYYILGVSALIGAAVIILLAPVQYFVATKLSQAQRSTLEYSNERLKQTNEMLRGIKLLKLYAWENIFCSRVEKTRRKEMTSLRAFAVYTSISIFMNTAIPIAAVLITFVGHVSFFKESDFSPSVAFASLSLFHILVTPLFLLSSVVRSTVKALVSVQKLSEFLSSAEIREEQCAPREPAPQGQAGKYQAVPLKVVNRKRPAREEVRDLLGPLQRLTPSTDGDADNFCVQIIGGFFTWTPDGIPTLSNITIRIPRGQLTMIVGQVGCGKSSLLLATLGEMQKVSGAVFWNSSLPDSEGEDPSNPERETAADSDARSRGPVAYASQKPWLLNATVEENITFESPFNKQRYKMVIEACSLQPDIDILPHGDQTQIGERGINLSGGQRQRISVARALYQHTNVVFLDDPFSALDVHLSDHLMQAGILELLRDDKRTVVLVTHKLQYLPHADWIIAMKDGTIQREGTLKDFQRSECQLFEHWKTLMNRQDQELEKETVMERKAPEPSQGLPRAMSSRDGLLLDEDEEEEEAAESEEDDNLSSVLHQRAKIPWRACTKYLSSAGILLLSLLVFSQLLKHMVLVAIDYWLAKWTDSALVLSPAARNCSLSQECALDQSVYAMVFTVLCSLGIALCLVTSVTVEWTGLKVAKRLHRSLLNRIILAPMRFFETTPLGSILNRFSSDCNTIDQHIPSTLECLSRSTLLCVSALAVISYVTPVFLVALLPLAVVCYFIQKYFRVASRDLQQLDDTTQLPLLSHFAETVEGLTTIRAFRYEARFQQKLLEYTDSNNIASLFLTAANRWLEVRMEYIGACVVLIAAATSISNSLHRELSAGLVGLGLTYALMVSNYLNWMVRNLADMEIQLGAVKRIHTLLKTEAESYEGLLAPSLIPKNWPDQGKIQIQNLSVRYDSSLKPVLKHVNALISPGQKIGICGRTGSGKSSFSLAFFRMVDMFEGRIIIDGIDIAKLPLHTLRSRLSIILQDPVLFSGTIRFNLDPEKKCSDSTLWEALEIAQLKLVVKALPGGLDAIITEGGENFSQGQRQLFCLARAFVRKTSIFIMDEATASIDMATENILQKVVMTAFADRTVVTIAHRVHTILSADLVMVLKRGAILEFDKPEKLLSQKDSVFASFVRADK
Nature of the test: Whole cell patch clamp recording of endogenous KATP currents in INS-R9 cells. The conditions noted are these: 10 μM pinacidil applied with MLC901 1 μg/mL. The format is cell-based. Background: The patch-clamp technique gives a direct electrical read-out from membranes.
Experimental: All electrophysiological experiments were done on INS-R9 transfected cells seeded at a density of 20,000 cells/35-mm dish. Transfected cells were used 48-72 h after transfection. […] All current amplitudes are expressed in current densities. Results are expressed as mean and standard error of the mean (SEM). […] For le currents the bath solution contained (in mM) 150 NaCl, 5 KCl, 3 MgCl2, 1 CaCl2 and 10 HEPES adjusted to pH 7.4 with NaOH. […] For Na^+ currents, the bath solution contained (in mM) 150 NaCl, 2 KCl, 1 MgCl2, 1.5 CaCl2, 10 glucose and 10 HEPES adjusted to pH 7.4 with NaOH. […] All experiments were performed at room temperature (21-22° c.). Stimulation protocols and data acquisition were carried out using a microcomputer (Dell Pentium) witch used a commercial software and hardware (pClamp 8.2). K^+ Currents were recorded by voltage clamp steps to membrane potentials of −140 to +80 mV for neurons or −100 to +60 mV for transfected cell lines in 20 mV steps applied from a holding potential of −80 mV. […] Current amplitudes were evaluated at the end of the stimulation pulses. Na^+ currents were recorded by voltage clamp steps to membrane potentials of −80 to +50 mV in 5 mV steps applied from a holding potential of −100 mV. The duration of a depolarization pulse was 100 ms, and the pulse cycling rate was 2 s. Current amplitudes were evaluated at the peak of the stimulation pulses. […]

Sequence of KATP channel (Kir 6.2 and SUR 1) (Q14654 whole entry): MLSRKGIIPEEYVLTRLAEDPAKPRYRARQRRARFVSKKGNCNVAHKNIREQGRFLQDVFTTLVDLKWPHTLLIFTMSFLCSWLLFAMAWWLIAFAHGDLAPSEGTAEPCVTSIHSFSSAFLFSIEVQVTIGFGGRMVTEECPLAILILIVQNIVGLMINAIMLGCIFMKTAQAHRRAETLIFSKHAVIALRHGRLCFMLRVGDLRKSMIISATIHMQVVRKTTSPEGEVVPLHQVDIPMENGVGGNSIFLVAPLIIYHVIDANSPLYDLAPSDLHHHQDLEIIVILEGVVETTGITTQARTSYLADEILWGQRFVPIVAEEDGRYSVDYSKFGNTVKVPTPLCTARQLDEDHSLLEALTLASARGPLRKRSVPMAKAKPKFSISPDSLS
Sequence of KATP channel (Kir 6.2 and SUR 1) (Q09428 whole entry): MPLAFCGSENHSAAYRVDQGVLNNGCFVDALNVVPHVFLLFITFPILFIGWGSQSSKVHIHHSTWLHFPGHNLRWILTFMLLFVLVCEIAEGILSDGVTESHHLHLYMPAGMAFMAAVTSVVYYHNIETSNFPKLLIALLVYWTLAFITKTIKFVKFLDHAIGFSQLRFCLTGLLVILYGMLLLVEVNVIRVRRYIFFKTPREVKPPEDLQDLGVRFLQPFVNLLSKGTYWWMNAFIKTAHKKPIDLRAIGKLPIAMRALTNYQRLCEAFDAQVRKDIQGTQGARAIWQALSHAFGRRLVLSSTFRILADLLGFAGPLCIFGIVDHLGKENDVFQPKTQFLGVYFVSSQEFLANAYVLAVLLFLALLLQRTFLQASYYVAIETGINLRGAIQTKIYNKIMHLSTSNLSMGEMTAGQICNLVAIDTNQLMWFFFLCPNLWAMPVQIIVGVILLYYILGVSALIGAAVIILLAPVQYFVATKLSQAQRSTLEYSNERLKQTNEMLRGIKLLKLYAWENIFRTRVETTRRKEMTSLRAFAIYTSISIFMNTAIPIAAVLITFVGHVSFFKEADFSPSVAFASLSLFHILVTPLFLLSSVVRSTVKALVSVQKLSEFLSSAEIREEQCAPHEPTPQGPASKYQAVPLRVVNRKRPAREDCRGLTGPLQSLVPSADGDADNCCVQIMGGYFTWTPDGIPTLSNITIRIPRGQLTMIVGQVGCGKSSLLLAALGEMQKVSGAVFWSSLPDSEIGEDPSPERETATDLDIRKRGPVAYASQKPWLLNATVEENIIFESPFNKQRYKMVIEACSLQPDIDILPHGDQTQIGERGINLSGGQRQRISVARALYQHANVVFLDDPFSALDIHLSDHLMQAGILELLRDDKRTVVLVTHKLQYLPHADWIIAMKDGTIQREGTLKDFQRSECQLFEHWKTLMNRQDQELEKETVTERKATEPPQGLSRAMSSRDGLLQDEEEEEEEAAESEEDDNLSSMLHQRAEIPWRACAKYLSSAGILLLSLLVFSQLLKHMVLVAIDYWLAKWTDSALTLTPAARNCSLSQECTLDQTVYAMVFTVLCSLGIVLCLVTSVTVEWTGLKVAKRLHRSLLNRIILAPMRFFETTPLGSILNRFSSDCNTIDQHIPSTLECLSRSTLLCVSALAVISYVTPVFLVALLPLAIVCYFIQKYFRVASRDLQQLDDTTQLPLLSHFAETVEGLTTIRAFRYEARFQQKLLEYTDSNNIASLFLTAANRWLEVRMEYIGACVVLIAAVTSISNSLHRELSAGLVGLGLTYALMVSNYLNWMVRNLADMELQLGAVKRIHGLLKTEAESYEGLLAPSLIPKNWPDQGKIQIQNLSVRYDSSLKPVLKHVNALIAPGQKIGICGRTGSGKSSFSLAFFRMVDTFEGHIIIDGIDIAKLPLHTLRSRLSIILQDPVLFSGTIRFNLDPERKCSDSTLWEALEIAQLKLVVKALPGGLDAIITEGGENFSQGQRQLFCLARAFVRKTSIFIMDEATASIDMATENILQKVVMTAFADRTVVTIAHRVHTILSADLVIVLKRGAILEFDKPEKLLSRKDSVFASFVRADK

As for `COc1ccc(Cl)cc1C(=O)NCCc1ccc(S(=O)(=O)NC(=O)NC2CCCCC2)cc1` [glibenclamide], the “effect on MLC901-induced hyperpolarization” value in the test with cortical neurons [1] is listed as “antagonized”. Further, the “effect on the protection induced by MLC901 against OGD damage” value in the test with cortical neurons [2] is “inhibited the protection induced by MLC901”.
For the compound `CC(N=C(NC#N)Nc1ccncc1)C(C)(C)C` (stereo not shown) [pinacidil, N-cyano-N′-pyridin-4-yl-N″-(1,2,2-trimethylpropyl)guanidine], the “amplitude of the azide-induced KATP channel current” value in test [3] was “amplified”. Besides, the “KATP current in INS-R9 cells, combination with MLC901” value in test [4] is given as “additive effect”.
